# Experimental data from patent US11053235B2, “Substituted 1,4-dihydropyrimidines for the treatment of HBV infection or HBV-induced diseases” (Janssen Sciences Ireland Unlimited Company, priority 2018, dated 2021).
# pEC50: −log10 of the molar value.
# Assays:
# [1] = Cytotoxicity determination in HepG2.2.15 cells (CCK-8); format: cell-based; conditions: human, 6 days treatment, CCK-8, highest concentration 100 uM
# Source text: (§1) Example 2: Anti-Viral Assay in HepG2.2.15 Cells
# (§2) 1.1. Cell Line • HepG2.2.15 (the HepG2.2.15 cell line can be produced by transfection of the HepG2 cell line as described in Sells, Chen, and Acs 1987 (Proc. Natl. Acad. Sci. USA 84:1005-1009), and the HepG2 cell line is available from ATCC® under number HB-8065™). Reagents • DMEM/F12 (INVITROGEN-11330032) • FBS (GIBCO-10099-141) • Dimethyl sulfoxide(DMSO) (SIGMA-D2650) • Penicillin-streptomycin solution (HYCLONE-SV30010) • NEAA (INVITROGEN-1114050) • L-Glutamine (INVITROGEN-25030081) • Geneticin Selective Antibiotic (G418, 500 mg/ml) (INVITROGEN-10131027) • Trypsinase digestion solution (INVITROGEN-25300062) • CCK8 (BIOLOTE-35004) • QIAamp 96 DNA Blood Kit (12) (QIAGEN-51162) • FastStart Universal Probe Mast Mix (ROCHE-04914058001)
# (§3) 2.1. HBV Inhibitory Activity and Cytotoxicity Determination
# (§4) Seed the cell HepG2.2.15 cells into 96-well plate in 2% FBS culture medium at the density of 40,000 cells/well and 5,000 cells/well for HBV inhibitory activity and cytotoxicity determination, respectively. After seeding, incubate the cell plates at 37° C., 5% CO2 overnight. The next day, medium containing compounds is added to the cell to treat the cells for 6 days with medium refreshed once in the middle of the treatment. 8 dose points with 3 folds dilution of each compound were adopted and the highest concentration of the compounds is 10 uM and 100 uM for HBV inhibitory activity and cytotoxicity determination, respectively.
# After 6 days of compounds treatment, add 20 μl CCK-8 reagents to each well of cytotoxicity assay plates, incubate the plate at 37° C., 5% CO2 for 2.5 h and measure the absorbance at 450 nm wavelength, at the same time read the absorbance at 630 nm wavelength as reference.
# (§5) EC50 and CC50 values are calculated by the GRAPHPAD PRISM software.
# HBV = assay: Anti-viral assay in HepG2.2.15 cells: HBV inhibitory activity (HBV DNA in culture medium by q-PCR); format: cell-based; conditions: Hepatitis B virus, HepG2.2.15, 144 h, HepG2.2.15 cells, 6 days treatment, HBV DNA in culture medium by q-PCR, highest concentration 10 uM; read-out: EC50
# Source text: as §1, §2, §3, §4
# The HBV DAN change in the cell culture medium induced by the compounds is measured by q-PCR method. Briefly, the HBV DNA in the culture medium is extracted using QIAamp 96 DNA Blood Kit according to the manual and then quantified by q-PCR using the primers and probe in the table below.
# as §5
Compound,CC50 at 6 days [1],pEC50 (HBV)
"COC(=O)C1=C([C@H]2CC[C@H](c3nc(CC(=O)O)co3)CC2)NC(c2nccs2)=NC1c1ccc(F)cc1Cl (single isomer, unassigned) [Compound I-17-A, (trans)-2-(2-(4-(6-(2-Chloro-4-fluorophenyl)-5-(methoxycarbonyl)-2-(thiazol-2-yl)-3,6-dihydropyrimidin-4-yl)cyclohexyl)oxazol-4-yl)acetic Acid]",25.7 µM,7.85
"COC(=O)C1=C([C@H]2CC[C@H](c3nc(CC(=O)O)co3)CC2)NC(c2nccs2)=NC1c1ccc(F)cc1Br (single isomer, unassigned) [Compound I-18-A, (trans)-2-(2-(4-(6-(2-Bromo-4-fluorophenyl)-5-(methoxycarbonyl)-2-(thiazol-2-yl)-3,6-dihydropyrimidin-4-yl)cyclohexyl)oxazol-4-yl)acetic Acid]",15.3 µM,8.15
"COC(=O)C1=C([C@H]2CC[C@H](c3nc(CC(=O)O)co3)CC2)NC(c2nccs2)=NC1c1cccc(F)c1Br (single isomer, unassigned) [Compound I-19-B]",15.2 µM,7.44
"COC(=O)C1=C([C@H]2CC[C@H](c3nc(CC(=O)O)co3)CC2)NC(c2nccs2)=NC1c1cccc(F)c1Cl (single isomer, unassigned) [Compound I-20-B, (trans)-2-(2-(4-(6-(2-Chloro-3-fluorophenyl)-5-(methoxycarbonyl)-2-(thiazol-2-yl)-3,6-dihydropyrimidin-4-yl)cyclohexyl)oxazol-4-yl)acetic Acid]",7.21 µM,7.52
"COC(=O)C1=C([C@H]2CC[C@H](c3nc(CC(=O)O)co3)CC2)NC(c2nccs2)=NC1c1cccc(F)c1C (single isomer, unassigned) [Compound I-21-B, (trans)-2-(2-(4-(6-(3-Fluoro-2-methylphenyl)-5-(methoxycarbonyl)-2-(thiazol-2-yl)-3,6-dihydropyrimidin-4-yl)cyclohexyl)oxazol-4-yl)acetic Acid]",8.04 µM,7.24
"COC(=O)C1=C([C@H]2CC[C@H](c3nc(CC(=O)O)c(C)o3)CC2)NC(c2nccs2)=NC1c1ccc(F)c(F)c1Cl (single isomer, unassigned) [Compound I-22-B, (trans)-2-(2-(4-(6-(2-Chloro-3,4-difluorophenyl)-5-(methoxycarbonyl)-2-(thiazol-2-yl)-3,6-dihydropyrimidin-4-yl)cyclohexyl)-5-methyloxazol-4-yl)acetic Acid]",7.68 µM,7.82
"CCOC(=O)C1=C([C@H]2CC[C@H](c3nc(CC(=O)O)co3)CC2)NC(c2nccs2)=NC1c1ccc(F)c(F)c1Cl (single isomer, unassigned) [Compound I-23-B, (trans)-2-(2-(4-(6-(2-Chloro-3,4-difluorophenyl)-5-(ethoxycarbonyl)-2-(thiazol-2-yl)-3,6-dihydropyrimidin-4-yl)cyclohexyl)oxazol-4-yl)acetic Acid]",5.48 µM,7.89
"CCOC(=O)C1=C([C@H]2CC[C@H](c3nc(CCC(=O)O)co3)CC2)NC(c2nccs2)=NC1c1ccc(F)c(F)c1Cl (single isomer, unassigned) [Compound I-24-A, (trans)-3-(2-(4-(6-(2-Chloro-3,4-difluorophenyl)-5-(ethoxycarbonyl)-2-(thiazol-2-yl)-3,6-dihydropyrimidin-4-yl)cyclohexyl)oxazol-4-yl)propanoic Acid]",6.79 µM,> 8.34
"COC(=O)C1=C([C@H]2CC[C@H](c3nc(CC(C)(C)C(=O)O)co3)CC2)NC(c2nccs2)=NC1c1ccc(F)c(F)c1Cl (single isomer, unassigned) [Compound I-25-B, (trans)-3-(2-(4-(6-(2-Chloro-3,4-difluorophenyl)-5-(methoxycarbonyl)-2-(thiazol-2-yl)-3,6-dihydropyrimidin-4-yl)cyclohexyl)oxazol-4-yl)-2,2-dimethylpropanoic acid]",7.9 µM,8.21
